Test results as given in PubChem BioAssay AID248 (DTP/NCI, 2004).
Several values for one entry are separate records, joined by “and”; a condition that tells them apart may be missing. Identical values can stand only once. Inconclusive results and toxic doses are left out. Rule as the data show it: active = T/C of 150% or more; inactive = T/C below 125%.

Tested on: L1210 leukemia ip in BDF1 mice, survival T/C
Assay: NCI In Vivo Anticancer Drug Screen. Data for tumor model L1210 Leukemia (intraperitoneal) in B6D2F1 (BDF1) mice
Settings: endpoint: mean survival time, higher = longer survival
How it was run: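 Value reflects the ratio of survival in compound-treated mice to survival in vehicle-treated controls, with both groups carrying the same transplanted tumor.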

[1] = dose: 100.0 mg/kg/injection, schedule: Q04DX003 (ip), vehicle: saline with Tween-80
[2] = dose: 200.0 mg/kg/injection, schedule: Q04DX003 (ip), vehicle: saline with Tween-80
[3] = dose: 400.0 mg/kg/injection, schedule: Q04DX003 (ip), vehicle: saline with Tween-80
[4] = dose: 100.0 mg/kg/injection, schedule: Q01DX001 (ip), vehicle: saline
[5] = dose: 200.0 mg/kg/injection, schedule: Q01DX001 (ip), vehicle: saline
[6] = dose: 400.0 mg/kg/injection, schedule: Q01DX001 (ip), vehicle: saline
[7] = dose: 50.0 mg/kg/injection, schedule: Q01DX001 (ip), vehicle: saline

Measured: T/C

O=c1oc2ccccc2c2c1C(c1ccccc1)C=C(c1ccccc1)O2 (centres undefined)
inactive: [1] 89 % of control | [2] 91 % of control | [3] 92 % of control

COc1cc(NCC(O)C(O)C(O)CO)c([N+](=O)[O-])cc1OC (centres undefined)
inactive: [4] 92 % of control | [5] 99 % of control | [6] 100 % of control

CC(C)=CCC(=O)NC(=O)NS(=O)(=O)c1ccc(C)cc1
inactive: dose: 10.2 mg/kg/injection, schedule: Q01DX009 (ip), vehicle: Klucel (hydroxypropylcellulose) (HPC) 100 % of control | dose: 100.0 mg/kg/injection, schedule: Q01DX009 (ip), vehicle: Klucel (hydroxypropylcellulose) (HPC) 96 % of control | dose: 100.0 mg/kg/injection, schedule: Q04DX003 (ip), vehicle: Klucel (hydroxypropylcellulose) (HPC) 100 % of control | dose: 200.0 mg/kg/injection, schedule: Q01DX009 (ip), vehicle: Klucel (hydroxypropylcellulose) (HPC) 100 % of control | dose: 200.0 mg/kg/injection, schedule: Q04DX003 (ip), vehicle: Klucel (hydroxypropylcellulose) (HPC) 102 % of control | dose: 400.0 mg/kg/injection, schedule: Q04DX003 (ip), vehicle: Klucel (hydroxypropylcellulose) (HPC) 101 % of control

CC1CN(CCCCO)C(=O)NC1=O (centres undefined)
inactive: [4] 90 % of control | [5] 88 % of control

Nc1nc2[nH]cnc(=S)c2[nH]1
inactive: dose: 75.0 mg/kg/injection, schedule: Q01DX001 (ip), vehicle: saline 101 % of control

CCCCCCCCCCCCCCCCS(=O)(=O)N/N=C(/c1cccc(N)c1)N1CCCCC1
inactive: dose: 50.0 mg/kg/injection, schedule: Q04DX003 (ip), vehicle: saline with Tween-80 87 % of control | [1] 90 % of control | [3] 88 % of control

O=C(CCCC(=O)N/N=C/c1ccccc1Cl)N/N=C\c1ccccc1Cl
inactive: [7] 103 % of control | [4] 100 % of control | [5] 110 % of control | [6] 110 % of control

C=CCc1cccc(CC=C)c1OCCN(CC)CC
inactive: dose: 25.0 mg/kg/injection, schedule: Q01DX009 (ip), vehicle: saline 98 % of control | dose: 50.0 mg/kg/injection, schedule: Q01DX009 (ip), vehicle: saline 105 % of control | dose: 100.0 mg/kg/injection, schedule: Q01DX009 (ip), vehicle: saline 95 % of control and 107 % of control

Cc1nc(N)[nH]c(=O)c1CCCNC(=O)c1ccc(CBr)cc1
inactive: dose: 25.0 mg/kg/injection, schedule: Q01DX001 (ip), vehicle: saline with Tween-80 95 % of control | dose: 50.0 mg/kg/injection, schedule: Q01DX001 (ip), vehicle: saline with Tween-80 88 % of control | dose: 100.0 mg/kg/injection, schedule: Q01DX001 (ip), vehicle: saline with Tween-80 97 % of control

N#CC(CN1CCOCC1)[N+](=O)[O-] (centres undefined)
inactive: [1] 98 % of control | [2] 93 % of control | [3] 95 % of control

NC(=O)n1cnc(N)n1
inactive: [7] 98 % of control | [4] 98 % of control | [5] 104 % of control | [6] 107 % of control

CC(=O)Nc1cccc2c(C)ccnc12
inactive: dose: 12.5 mg/kg/injection, schedule: Q01DX009 (ip), vehicle: Klucel (hydroxypropylcellulose) (HPC) 99 % of control | dose: 12.5 mg/kg/injection, schedule: Q04DX003 (ip), vehicle: Klucel (hydroxypropylcellulose) (HPC) 94 % of control | dose: 25.0 mg/kg/injection, schedule: Q01DX009 (ip), vehicle: Klucel (hydroxypropylcellulose) (HPC) 97 % of control | dose: 25.0 mg/kg/injection, schedule: Q04DX003 (ip), vehicle: Klucel (hydroxypropylcellulose) (HPC) 98 % of control | dose: 50.0 mg/kg/injection, schedule: Q01DX009 (ip), vehicle: Klucel (hydroxypropylcellulose) (HPC) 87 % of control | dose: 50.0 mg/kg/injection, schedule: Q04DX003 (ip), vehicle: Klucel (hydroxypropylcellulose) (HPC) 95 % of control

CC(C)(C)C1CCC(=O)CC1
inactive: dose: 12.5 mg/kg/injection, schedule: Q04DX002 (ip), vehicle: saline 109 % of control | dose: 25.0 mg/kg/injection, schedule: Q04DX002 (ip), vehicle: saline 106 % of control | dose: 50.0 mg/kg/injection, schedule: Q04DX002 (ip), vehicle: saline 95 % of control | dose: 100.0 mg/kg/injection, schedule: Q04DX002 (ip), vehicle: saline 99 % of control

O=C(O)c1cc(-c2ccccc2Cl)nc2ccccc12
inactive: [4] 96 % of control | [5] 94 % of control | [6] 97 % of control

COC(=O)C(=O)CC(=O)c1cccc([N+](=O)[O-])c1
inactive: dose: 100.0 mg/kg/injection, schedule: Q04DX002 (ip), vehicle: Klucel (hydroxypropylcellulose) (HPC) 103 % of control | dose: 200.0 mg/kg/injection, schedule: Q04DX002 (ip), vehicle: Klucel (hydroxypropylcellulose) (HPC) 95 % of control | dose: 400.0 mg/kg/injection, schedule: Q04DX002 (ip), vehicle: Klucel (hydroxypropylcellulose) (HPC) 95 % of control

O=C1N=C2C=CC=CN2CC1O (centres undefined)
inactive: [1] 88 % of control | [2] 89 % of control | [3] 89 % of control
